From ChEMBL document CHEMBL1201862, “PubChem BioAssay data set” (2004)
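The compound was tested at five concentrations on cells cultured in 96-well plates, with a 48-hour exposure period. Abbreviation: GI50, concentration required for 50% inhibition of growth.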 The source made the active and inactive calls. No stated cut-off is given here; in the data, active = GI50 up to about 1.1 µM and inactive = higher.

Tests used:
Test in all cases: DTP human tumour cell line panel, 48 h
DMS-273 = system: DMS-273
KM-20L2 = system: KM-20L2
XF498 = system: XF498
SNB-78 = system: SNB-78
RXF 631 = system: RXF 631
DLD-1 = system: DLD-1
LXFL 529 = system: LXFL 529
DMS-114 = system: DMS-114
BT-549 = system: BT-549

Measured: GI50

CCOC(=O)C(C[Si](C)(C)C)P(=O)(OCC)OCC (stereo not given)
inactive: DMS-273 > 100 µM | KM-20L2 > 100 µM | XF498 > 100 µM | SNB-78 > 100 µM | RXF 631 > 100 µM | DLD-1 > 100 µM | LXFL 529 > 100 µM | DMS-114 > 100 µM

Cc1cccc(C)c1NC(=O)CCCC(=O)C1CCC/C1=N\NC(=O)C(=O)NN (stereo not given)
inactive: DMS-273 > 100 µM | KM-20L2 > 100 µM | XF498 > 100 µM | SNB-78 > 100 µM | RXF 631 > 100 µM | DLD-1 > 100 µM | LXFL 529 > 100 µM | DMS-114 > 100 µM

CN/N=C(/CCN1CCCC1)CC(c1ccccc1)c1c(O)c2ccccc2oc1=O (stereo not given)
inactive: DMS-273 > 100 µM | KM-20L2 > 100 µM | XF498 > 100 µM | SNB-78 > 100 µM | RXF 631 > 100 µM | DLD-1 > 100 µM | LXFL 529 > 100 µM | BT-549 > 100 µM | DMS-114 > 100 µM

COc1ccc2c(c1)CCc1cnn(C3OC(COC(C)=O)C(OC(C)=O)C(OC(C)=O)C3OC(C)=O)c1-2 (stereo not given)
inactive: DMS-273 > 100 µM | KM-20L2 22.5 µM | XF498 22.6 µM | SNB-78 > 100 µM | RXF 631 > 100 µM | DLD-1 46.8 µM | LXFL 529 19.1 µM | DMS-114 65.6 µM

NC(=S)N/N=C1/C(=O)N(c2ccccc2)C(=O)C1C(=O)Nc1ccccc1 (stereo not given)
inactive: DMS-273 > 100 µM | KM-20L2 > 100 µM | XF498 > 100 µM | SNB-78 > 100 µM | RXF 631 > 100 µM | LXFL 529 > 100 µM | DMS-114 > 100 µM
